Measurements reported in patent US9458203B2, “Integrin-blocking polypeptides and uses thereof” (priority 2011, dated 2016).
Where two headings read alike, the source gives them in different places. Ends that are not written are not given here.

What was measured:
melanoma B16F10 = assay: transplanted melanoma B16F10 in C57BL/6 black mice; conditions: mouse, in vivo
Protocol: Hypodermically injecting polypeptides and other drugs into the left axillary region of mice from the experimental groups respectively while administering only equal quantity of physiological saline to the mice from the negative control group. The total medication period was 14 days, during which cyclophosphamide was administered once every other day, taxol once every three days, low-dose polypeptide twice a day and all other drugs once a day.

[1] = tested on: human cervical cancer HeLa; type: in vivo, nude mice; conditions: mouse, in vivo
Protocol: (§2) Taking a certain amount of vigorously growing tumor tissue, grinding the tumor tissue under sterile conditions and preparing cell suspension at the concentration of 1×10^7 cells/ml; then hypodermicaly inoculating 0.1 ml of the cell suspension into the right axillary region of nude mice. Keeping measuring the diameter of the transplanted tumor with a vernier caliper, and randomly dividing the mice into groups when the volume of the tumor reached 100-200 mm^3. […] Measuring the tumor diameter once every other day and recording the body weight of mice simultaneously. Intravenously injecting polypeptides to mice from test groups while administering equal quantity of physiological saline to mice from the negative control group. The total medication period was 14 days. Avastin was adopted to set up a positive control group; it was administered through the tail vein once every three days while all other drugs were administered through the tail vein once a day. Leaving mice for a one-week rest after 14 days' medication, then (21 days after medication) killing the mice, surgically dissecting the tumors and measuring the weight of tumors. The tumor volume (TV) was calculated in accordance with the following formula: TV=½×a×b^2

[2] = tested on: human prostate cancer DU-145; type: in vivo, nude mice; conditions: mouse, in vivo
Protocol: as §2

[3] = type: in vivo, nude mice; conditions: mouse, in vivo
Excerpt: (§1) The total medication period was 14 days.

[4] = tested on: human esophageal cancer Ec109; type: in vivo, nude mice; conditions: mouse, in vivo
Excerpt: as §1

[5] = tested on: human testicular cancer 5637; type: in vivo, nude mice; conditions: mouse, in vivo
Excerpt: as §1

sarcoma HT-1080 = type: in vivo, nude mice; conditions: mouse, in vivo
Excerpt: as §1

[6] = tested on: human bladder cancer HT1376; assay: heterotransplanted human bladder cancer HT1376 in nude mice; type: in vivo; conditions: for final weight: daily, tail vein injection
Excerpt: as §1

[7] = tested on: human pancreatic cancer SW-1990; assay: heterotransplanted human pancreatic cancer SW-1990 in nude mice; type: in vivo; conditions: for final weight: daily, tail vein injection
Excerpt: as §1

human colon cancer HT-29 = type: in vivo, nude mice; conditions: mouse, in vivo
Protocol: as §2

[8] = tested on: human thyroid cancer SW-579; type: in vivo, nude mice; conditions: mouse, in vivo
Protocol: as §2

human renal cancer A498 = type: in vivo, nude mice; conditions: mouse, in vivo
Protocol: as §2

[9] = tested on: human ovarian cancer SK-OV-3; type: in vivo, nude mice; conditions: mouse, in vivo
Protocol: as §2

[10] = tested on: human laryngeal cancer Hep-2; assay: heterotransplanted human laryngeal cancer Hep-2 in nude mice; type: in vivo
Excerpt: as §1

[11] = tested on: human breast cancer MDA-MB-231; conditions: mouse, in vivo
Protocol: (§3) Taking a certain amount of vigorously growing tumor tissue, grinding the tumor tissue under sterile conditions and preparing cell suspension at the concentration of 1×10^7 cells/ml; then hypodermicaly inoculating 0.1 ml of the cell suspension into the right axillary region of nude mice. Keeping measuring the diameter of the transplanted tumor with a vernier caliper, and randomly dividing the mice into groups when the volume of the tumor reached 100-200 mm^3. Observing the dynamic effect of integrin-blocking polypeptides on inhibiting the growth of the tumor by means of documenting the change of tumor diameters. Measuring the tumor diameter once every other day and recording the body weight of mice simultaneously. Intravenously injecting polypeptides to mice from test groups while administering equal quantity of physiological saline to mice from the negative control group. The total medication period was 14 days. Avastin was adopted to set up a positive control group; it was administered through the tail vein once every three days while all other drugs were administered through the tail vein once a day. Leaving mice for a one-week rest after 14 days' medication, then (21 days after medication) killing the mice, surgically dissecting the tumors and measuring the weight of tumors. The tumor volume (TV) was calculated in accordance with the following formula: TV=½×a×b^2
(§4) wherein a, b refer to the length and width of the tumor respectively.
(§5) The relative tumor volume (RTV) can be calculated in accordance with the results of measurement, using the formula: RTV=Vt/V0, wherein V0 refers to the initial tumor volume measured on the date starting medication (namely d0) while Vt the tumor volume obtained through every measurement. The anti-tumor activity was evaluated by relative proliferation rate T/C (%), which was calculated in accordance with the following formula:
(§6) wherein TRTV refers to the RTV of experimental groups; CRTV refers to the RTV of the negative control group.

[12] = tested on: human gastric cancer MGC-803; conditions: mouse, in vivo
Excerpt: (§7) Keeping measuring the diameter of the transplanted tumor with a vernier caliper, and randomly dividing the mice into groups when the volume of the tumor reached 100-200 mm^3. Observing the dynamic effect of integrin-blocking polypeptides on inhibiting the growth of the tumor by means of documenting the change of tumor diameters. Measuring the tumor diameter once every other day and recording the body weight of mice simultaneously. Intravenously injecting polypeptides to mice from test groups while administering equal quantity of physiological saline to mice from the negative control group. The total medication period was 14 days. Avastin was adopted to set up a positive control group; it was administered through the tail vein once every three days while all other drugs were administered through the tail vein once a day. Leaving mice for a one-week rest after 14 days' medication, then (21 days after medication) killing the mice, surgically dissecting the tumors and measuring the weight of tumors. The tumor volume (TV) was calculated in accordance with the following formula: TV=½×a×b^2

human lung cancer H460 = conditions: mouse, in vivo
Protocol: as §3
(§8) Taxol used in the positive control group was administered once every 3 days through tail vein injection, while drugs of all other groups were administered on daily basis through tail vein injection.

[13] = tested on: human liver cancer SMMC-7721; conditions: mouse, in vivo
Protocol: as §3, §8

[14] = tested on: human endometrial cancer HHUA; conditions: mouse, in vivo
Protocol: as §3, §8

[15] = tested on: human gallbladder cancer GBC-SD; conditions: mouse, in vivo
Protocol: as §3
(§9) Avastin used in the positive control group was administered once every 2 days through tail vein injection, while drugs of all other groups were administered on daily basis through tail vein injection.

human brain tumor SF763 = conditions: mouse, in vivo
Protocol: as §3, §8

[16] = tested on: human rectal cancer Colo 320; conditions: mouse, in vivo
Protocol: as §3, §8

[17] = tested on: human gastric cancer MGC-803; assay: heterotransplanted human gastric cancer MGC-803 in nude mice; conditions: for final weight: tail vein daily
Excerpt: as §7

[18] = tested on: human breast cancer MDA-MB-231; assay: heterotransplanted human breast cancer MDA-MB-231 in nude mice; conditions: for final weight: tail vein once a day, 14 days
Protocol: as §3, §4, §5, §6

[19] = tested on: human gallbladder cancer GBC-SD; assay: heterotransplanted human gallbladder cancer GBC-SD in nude mice; conditions: for final weight: daily, tail vein injection
Protocol: as §3, §9

[20] = in contrast with the negative control group

FQPVLHLVALNSPLSGGMRGIRGADFQCFQQARAVGLAGTFRA [polypeptide I]
body weight of animals, in words (melanoma B16F10): no significant change | toxic and side effects, in words (melanoma B16F10): no significant toxic and side effects | body weight of animals, in words [1]: no significant change in body weight | toxic and side effects, in words [1]: no obvious toxic and side effects | body weight of animals, in words [2]: no significant change in body weight | toxic and side effects, in words [2]: no obvious toxic and side effects | body weight of animals, in words [3]: no significant change in body weight | body weight of animals, in words [4]: no significant change in body weight | toxic and side effects, in words [4]: no obvious toxic and side effects | toxic and side effects, in words [5]: no obvious toxic and side effects | body weight of animals, in words (sarcoma HT-1080): no significant change in body weight | toxic and side effects, in words (sarcoma HT-1080): no obvious toxic and side effects | final weight (sarcoma HT-1080; 0.75 mg/kg): 22.99 ± 0.51 g | final weight (sarcoma HT-1080; 1.5 mg/kg): 23.10 ± 0.64 g | final weight (sarcoma HT-1080; 3 mg/kg): 23.13 ± 0.38 g | final weight ([6]; 0.75 mg/kg/time): 23.17 ± 0.58 g | final weight ([6]; 1.5 mg/kg/time): 22.88 ± 0.66 g | final weight ([6]; 3 mg/kg/time): 23.14 ± 0.54 g | body weight of animals, in words [6, 20]: no significant change in body weight | toxic and side effects, in words ([6]; mouse, in vivo): no obvious toxic and side effects | final weight ([7]; 0.75 mg/kg/time): 23.06 ± 0.64 g | final weight ([7]; 1.5 mg/kg/time): 23.03 ± 0.65 g | final weight ([7]; 3 mg/kg/time): 22.86 ± 0.65 g | body weight of animals, in words [7, 20]: no significant change in body weight | toxic and side effects, in words ([7]; mouse, in vivo): no obvious toxic and side effects | body weight of animals, in words (human colon cancer HT-29): no significant change in body weight | toxic and side effects, in words (human colon cancer HT-29): no obvious toxic and side effects | body weight of animals, in words [8]: no significant change in body weight | toxic and side effects, in words [8]: no obvious toxic and side effects | body weight of animals, in words (human renal cancer A498): no significant change in body weight | toxic and side effects, in words (human renal cancer A498): no obvious toxic and side effects | body weight of animals, in words [9]: no significant change in body weight | toxic and side effects, in words [9]: no obvious toxic and side effects | final weight ([9]; 0.75 mg/kg): 23.09 ± 0.59 g | final weight ([9]; 1.5 mg/kg): 22.96 ± 0.59 g | final weight ([9]; 3 mg/kg): 23.16 ± 0.51 g | final weight ([10]; body weight of nude mice, 0.75 mg/kg/time, daily, tail vein injection): 22.88 ± 0.63 g | final weight ([10]; body weight of nude mice, 1.5 mg/kg/time, daily, tail vein injection): 23.21 ± 0.62 g | final weight ([10]; body weight of nude mice, 3 mg/kg/time, daily, tail vein injection): 22.99 ± 0.62 g | body weight of animals, in words [10, 20]: no significant change in body weight | toxic and side effects, in words ([10]; mouse, in vivo): no obvious toxic and side effects | toxic and side effects, in words [11]: no obvious toxic and side effects | toxic and side effects, in words [12]: no obvious toxic and side effects | body weight of animals, in words (human lung cancer H460): no significant change in body weight | toxic and side effects, in words (human lung cancer H460): no obvious toxic and side effects | body weight of animals, in words [13]: no significant change in body weight | toxic and side effects, in words [13]: no obvious toxic and side effects | body weight of animals, in words [14]: no significant change in body weight | toxic and side effects, in words [14]: no obvious toxic and side effects | toxic and side effects, in words [15]: no obvious toxic and side effects | body weight of animals, in words (human brain tumor SF763): no significant change in body weight | toxic and side effects, in words (human brain tumor SF763): no obvious toxic and side effects | final weight (human brain tumor SF763; 0.75 mg/kg): 22.90 ± 0.69 g | final weight (human brain tumor SF763; 1.5 mg/kg): 22.99 ± 0.62 g | final weight (human brain tumor SF763; 3 mg/kg): 20.94 ± 0.47 g | body weight of animals, in words [16]: no significant change in body weight | toxic and side effects, in words [16]: no obvious toxic and side effects | final weight ([16]; 0.75 mg/kg): 23.11 ± 0.61 g | final weight ([16]; 1.5 mg/kg): 22.87 ± 0.57 g | final weight ([16]; 3 mg/kg): 20.99 ± 0.66 g | final weight ([17]; 0.75 mg/kg/time): 22.98 ± 0.60 g | final weight ([17]; 1.5 mg/kg/time): 22.66 ± 0.61 g | final weight ([17]; 3 mg/kg/time): 23.23 ± 0.67 g | body weight of animals, in words [17, 20]: no significant change in body weight | final weight ([18]; 0.75 mg/kg/time): 22.28 ± 1.75 g | final weight ([18]; 1.5 mg/kg/time): 20.21 ± 1.97 g | final weight ([18]; 3 mg/kg/time): 19.34 ± 1.13 g | body weight of animals, in words [18, 20]: no significant change in body weight | final weight ([19]; 0.75 mg/kg/time): 22.95 ± 0.46 g | final weight ([19]; 1.5 mg/kg/time): 23.04 ± 0.55 g | final weight ([19]; 3 mg/kg/time): 22.89 ± 0.51 g | body weight of animals, in words [19, 20]: no significant change in body weight

RGDGGGGFQPVLHLVALNSPLSGGMRGIRGADFQCFQQARAVGLAGTFRA [polypeptide II]
body weight of animals, in words (melanoma B16F10): no significant change in body weight | toxic and side effects, in words (melanoma B16F10): no obvious toxic and side effects | body weight of animals, in words [1]: no significant change in body weight | toxic and side effects, in words [1]: no obvious toxic and side effects | body weight of animals, in words [2]: no significant change in body weight | toxic and side effects, in words [2]: no obvious toxic and side effects | body weight of animals, in words [3]: no significant change in body weight | body weight of animals, in words [4]: no significant change in body weight | toxic and side effects, in words [4]: no obvious toxic and side effects | toxic and side effects, in words [5]: no obvious toxic and side effects | body weight of animals, in words (sarcoma HT-1080): no significant change in body weight | toxic and side effects, in words (sarcoma HT-1080): no obvious toxic and side effects | final weight (sarcoma HT-1080; 0.75 mg/kg): 22.93 ± 0.46 g | final weight (sarcoma HT-1080; 1.5 mg/kg): 22.95 ± 0.46 g | final weight (sarcoma HT-1080; 3 mg/kg): 23.04 ± 0.55 g | body weight of animals, in words ([6]; mouse, in vivo): no significant change in body weight | toxic and side effects, in words ([6]; mouse, in vivo): no obvious toxic and side effects | body weight of animals, in words ([7]; mouse, in vivo): no significant change in body weight | toxic and side effects, in words ([7]; mouse, in vivo): no obvious toxic and side effects | body weight of animals, in words (human colon cancer HT-29): no significant change in body weight | toxic and side effects, in words (human colon cancer HT-29): no obvious toxic and side effects | body weight of animals, in words [8]: no significant change in body weight | toxic and side effects, in words [8]: no obvious toxic and side effects | body weight of animals, in words (human renal cancer A498): no significant change in body weight | toxic and side effects, in words (human renal cancer A498): no obvious toxic and side effects | body weight of animals, in words [9]: no significant change in body weight | toxic and side effects, in words [9]: no obvious toxic and side effects | final weight ([9]; 0.75 mg/kg): 23.07 ± 0.50 g | final weight ([9]; 1.5 mg/kg): 23.32 ± 0.50 g | final weight ([9]; 3 mg/kg): 22.97 ± 0.65 g | body weight of animals, in words ([10]; mouse, in vivo): no significant change in body weight | toxic and side effects, in words ([10]; mouse, in vivo): no obvious toxic and side effects | final weight ([10]; mouse, in vivo, 0.75 mg/kg): 22.88 ± 0.70 g | final weight ([10]; mouse, in vivo, 1.5 mg/kg): 22.98 ± 0.60 g | final weight ([10]; mouse, in vivo, 3 mg/kg): 22.66 ± 0.61 g | body weight of animals, in words [11]: no significant change in body weight | toxic and side effects, in words [11]: no obvious toxic and side effects | body weight of animals, in words [12]: no significant change in body weight | toxic and side effects, in words [12]: no obvious toxic and side effects | body weight of animals, in words (human lung cancer H460): no significant change in body weight | toxic and side effects, in words (human lung cancer H460): no obvious toxic and side effects | body weight of animals, in words [13]: no significant change in body weight | toxic and side effects, in words [13]: no obvious toxic and side effects | body weight of animals, in words [14]: no significant change in body weight | toxic and side effects, in words [14]: no obvious toxic and side effects | body weight of animals, in words [15]: no significant change in body weight | toxic and side effects, in words [15]: no obvious toxic and side effects | body weight of animals, in words (human brain tumor SF763): no significant change in body weight | toxic and side effects, in words (human brain tumor SF763): no obvious toxic and side effects | final weight (human brain tumor SF763; 0.75 mg/kg): 22.95 ± 0.52 g | final weight (human brain tumor SF763; 1.5 mg/kg): 22.88 ± 0.52 g | final weight (human brain tumor SF763; 3 mg/kg): 23.24 ± 0.66 g | body weight of animals, in words [16]: no significant change in body weight | toxic and side effects, in words [16]: no obvious toxic and side effects | final weight ([16]; 0.75 mg/kg): 22.85 ± 0.61 g | final weight ([16]; 1.5 mg/kg): 23.10 ± 0.61 g | final weight ([16]; 3 mg/kg): 22.99 ± 0.37 g
